The text below walks through data of ChEMBL document CHEMBL1142447, “Insights into the mechanism of Na+,K+-ATPase inhibition by 2-methoxy-3,8,9-trihydroxy coumestan” (Bioorg Med Chem, 2008).

The source made the active and inactive calls. No cut-off for these calls is given here.

The species entered for experiment [1] is Rattus norvegicus. The experiment in a line: Inhibition of rat kidney Na(+)/K(+) ATPase assessed as enzyme activity at 1 mM after 2 hrs by Fiske and Subbarow method relative to control in presence of 1 mM cysteine. The arrangement: scale not given: the % may be the effect or the level left.
The species entered for experiment [2] is Rattus norvegicus. The experiment in a line: Inhibition of rat kidney Na(+)/K(+) ATPase at 1 mM after 2 hrs by Fiske and Subbarow method in presence of DTT.
The species entered for experiment [3] is Rattus norvegicus. The experiment in a line: Inhibition of rat kidney Na(+)/K(+) ATPase assessed as enzyme activity at 1 mM after 2 hrs by Fiske and Subbarow method relative to control. The arrangement: scale not given: the % may be the effect or the level left.
For experiment [4], the species on record is Rattus norvegicus. The experiment in a line: Inhibition of rat kidney Na(+)/K(+) ATPase assessed as enzyme activity at 1 mM after 2 hrs by Fiske and Subbarow method relative to control in presence of 500 uM beta mercaptoethanol. On the set-up: scale not given: the % may be the effect or the level left.
The species entered for experiment [5] is Rattus norvegicus. Briefly: Inhibition of rat kidney Na(+)/K(+) ATPase assessed after 2 hrs by Fiske and Subbarow method in presence of DTT.
A short description of experiment [6]: Inhibition of rat gastrocnemius Ca2+/Mg2+ ATPase after 2 hrs. The format is tissue-based.
The species named for experiment [7] is Rattus norvegicus. Briefly: Inhibition of rat kidney Na(+)/K(+) ATPase assessed as enzyme activity at 30 uM after 2 hrs by Fiske and Subbarow method relative to control in presence of 500 uM beta mercaptoethanol. On the set-up: scale not given: the % may be the effect or the level left.
The species named for experiment [8] is Rattus norvegicus. The experiment in a line: Inhibition of Na(+)/K(+) ATPase in rat kidney assessed as decrease in free sulfydryl groups level at 30 uM after 1 hr by Ellman's method. (In Ellman's method for cholinesterases, released thiocholine reacts with DTNB.)
Experiment [9] is described as follows: Inhibition of rat kidney Na(+)/K(+) ATPase.
Experiment [10] is filed under the species Rattus norvegicus. Briefly: Inhibition of rat kidney Na(+)/K(+) ATPase assessed as enzyme activity preincubated for 30 mins after 2 hrs by Fiske and Subbarow method in presence of beta mercaptoethanol.
Experiment [11] is filed under the species Rattus norvegicus. Briefly: Inhibition of rat kidney Ca2+/Mg2+ ATPase assessed after 2 hrs by Fiske and Subbarow method in presence of DTT.
Experiment [12] in a line: Inhibition of rat stomach H(+)/K(+) ATPase after 2 hrs by Fiske and Subbarow method. The format is tissue-based.
For experiment [13], the species on record is Rattus norvegicus. The experiment in a line: Inhibition of rat kidney Na(+)/K(+) ATPase assessed as enzyme activity at 30 uM after 2 hrs by Fiske and Subbarow method relative to control. On the set-up: scale not given: the % may be the effect or the level left.
Experiment [14] is filed under the species Rattus norvegicus. The experiment in a line: Inhibition of rat kidney Na(+)/K(+) ATPase assessed as enzyme activity at 30 uM after 2 hrs by Fiske and Subbarow method relative to control in presence of 1 mM cysteine. On the set-up: scale not given: the % may be the effect or the level left.

`C[C@@H]1O[C@@H](O[C@H]2C[C@@H](O)[C@]3(CO)[C@H]4[C@H](O)C[C@]5(C)[C@@H](C6=CC(=O)OC6)CC[C@]5(O)[C@@H]4CC[C@]3(O)C2)[C@H](O)[C@H](O)[C@H]1O`: the Activity in the experiment listed under Rattus norvegicus [1] worked out at 12%; in the experiment listed under Rattus norvegicus [3], 11.6%; in the experiment listed under Rattus norvegicus [4], 10.5%. For the same molecule, the outcome in the experiment filed under Rattus norvegicus [2] was Active.
What is called IC50 is the concentration at which inhibition is half-maximal. Regarding `COc1cc2c(cc1O)oc(=O)c1c3cc(O)c(O)cc3oc21`, the outcome in the experiment listed under Rattus norvegicus [5] and in the experiment filed under Rattus norvegicus [11] was inactive. The values for the IC50 in experiment [6], in experiment [9] and in experiment [12] were 10 µM, 3 µM and 30 µM, respectively. For the same molecule, the values for the Activity in the experiment filed under Rattus norvegicus [7], in the experiment filed under Rattus norvegicus [13] and in the experiment filed under Rattus norvegicus [14] were 81.3%, 6.9% and 75.5%, respectively. Also, the result in the experiment filed under Rattus norvegicus [8] and in the experiment filed under Rattus norvegicus [10] was Active.
